According to patent publication US20240245673A1, “Papain-like protease (PLpro) inhibitors” (Pfizer Inc., priority 2022, published 2024):

Molecular target: SARS-CoV-2 Papain like protease (PLpro) (Severe acute respiratory syndrome coronavirus 2 (2019-nCoV) (SARS-CoV-2), UniProt P0DTD1)
Test: Papain Like Protease (PLpro) biochemical assay with profluorogenic substrate Z-RLRGG-AMC
Conditions: SARS-CoV-2 PLpro 6.25 nM, 25 μM Z-RLRGG-AMC substrate, 60 minute reaction; read-out: IC50

| SMILES | IC50 |
| --- | --- |
| COC[C@@H](OCc1cocn1)c1ccc(C(=O)NC2(c3cc(-c4cnn(C)c4)cc4ncccc34)CC2)c(C)c1 (single isomer, unassigned) [Example 355] | < 1 nM |
| Cc1cc(COCc2cscn2)ccc1C(=O)NC1(c2cc(-c3cnn(CC(N)=O)c3)nc3ccccc23)CC1 [Example 352, N-(1-(2-(1-(2-amino-2-oxoethyl)-1H-pyrazol-4-yl)quinolin-4-yl)cyclopropyl)-2-methyl-4-((thiazol-4-ylmethoxy)methyl)benzamide] | < 1 nM |
| COC(=O)c1c[nH]c(-c2cc(C(C)NC(=O)c3cc(CN)ccc3C)c3ccccc3c2)c1 (stereo not shown) [Example 70, methyl 5-(4-(1-(5-(aminomethyl)-2-methylbenzamido)ethyl)naphthalen-2-yl)-1H-pyrrole-3-carboxylate] | 11 nM |
| CC(=O)N(Cc1ccc(C(=O)N[C@H](C)c2cc(-c3cnn(C)c3)nc3ccccc23)c(C)c1)Cc1cscn1 [Example 267, (R)-2-methyl-N-(1-(2-(1-methyl-1H-pyrazol-4-yl)quinolin-4-yl)ethyl)-4-((N-(thiazol-4-ylmethyl)acetamido)methyl)benzamide] | 210 nM |
| Cc1ccccc1C(=O)NC(C)c1cc(CC2CCOCC2)nc2ccccc12 (stereo in doubt) [Example 152, 2-methyl-N-[(1R)-1-{2-[(oxan-4-yl)methyl]quinolin-4-yl}ethyl]benzamide] | 623 nM |
| CNCc1ccc(C)c(C(=O)N[C@H](C)c2cc(-c3cnn(C)c3)nc3ccccc23)c1 [Example 13, (R)-2-methyl-N-(1-(2-(1-methyl-1H-pyrazol-4-yl)quinolin-4-yl)ethyl)-5-((methylamino)methyl)benzamide] | 24 nM |
| Cc1cc(C(=O)NCc2cscn2)ccc1C(=O)N[C@H](C)c1cc(-c2cnn(C)c2)nc2ccccc12 [Example 201, (R)-2-methyl-N1-(1-(2-(1-methyl-1H-pyrazol-4-yl)quinolin-4-yl)ethyl)-N4-(thiazol-4-ylmethyl)terephthalamide] | 3 nM |
| Cc1cc(C(C)(C)NC(=O)c2ncc[nH]2)ccc1C(=O)N[C@H](C)c1cc(-c2cnn(C)c2)nc2ccccc12 [Example 215, (R)-N-(2-(3-methyl-4-((1-(2-(1-methyl-1H-pyrazol-4-yl)quinolin-4-yl)ethyl)carbamoyl)phenyl)propan-2-yl)-1H-imidazole-2-carboxamide] | 144 nM |
| COC(=O)c1c[nH]c(-c2cc(C(C)NC(=O)c3cc(N4CCN(C)CC4)ccc3C)c3ccccc3c2)c1 (stereo not shown) [Example 228, methyl 5-(4-(1-(2-methyl-5-(4-methylpiperazin-1-yl)benzamido)ethyl)naphthalen-2-yl)-1H-pyrrole-3-carboxylate] | 7 nM |
| Cc1ccc(N2CCN(C)CC2)cc1C(=O)NC1(c2cc(-c3cc(C(=O)N(C)C)c[nH]3)cc3ccccc23)CC1 [Example 277, N,N-dimethyl-5-(4-(1-(2-methyl-5-(4-methylpiperazin-1-yl)benzamido)cyclopropyl)naphthalen-2-yl)-1H-pyrrole-3-carboxamide] | 2 nM |
| Cc1cc(C(=O)NC2(c3ncc[nH]3)CC2)ccc1C(=O)N[C@H](C)c1cc(-c2cnn(C)c2)nc2ccccc12 [Example 242] | 6 nM |
| CCOC(=O)/C=C/C(=O)NNC(=O)CCc1ccccc1C(=O)N[C@H](C)c1cc(-c2cnn(C)c2)nc2ccccc12 [Example 232, ethyl (R,E)-4-(2-(3-(2-((1-(2-(1-methyl-1H-pyrazol-4-yl)quinolin-4-yl)ethyl)carbamoyl)phenyl)propanoyl)hydrazineyl)-4-oxobut-2-enoate] | 3 nM |
| Cc1ccc(CN)cc1C(=O)N[C@H](C)c1cc(-c2cc(C(=O)O)c[nH]2)nc2ccccc12 [Example 20, (R)-5-(4-(1-(5-(aminomethyl)-2-methylbenzamido)ethyl)quinolin-2-yl)-1H-pyrrole-3-carboxylic acid] | 41 nM |
| Cc1ccc(NC(=O)[C@H]2CCCCN2)cc1C(=O)NC(C)c1cc(-c2ccn[nH]2)cc2ccccc12 (mixture of isomers) [Example 65, (2R)-N-(3-((1-(3-(1H-pyrazol-5-yl)naphthalen-1-yl)ethyl)carbamoyl)-4-methylphenyl)piperidine-2-carboxamide] | 21 nM |
| Cc1cc(CN(C)C(=O)c2ncc[nH]2)ccc1C(=O)N[C@H](C)c1cc(-c2cnn(C)c2)nc2ccccc12 [Example 265, (R)-N-methyl-N-(3-methyl-4-((1-(2-(1-methyl-1H-pyrazol-4-yl)quinolin-4-yl)ethyl)carbamoyl)benzyl)-1H-imidazole-2-carboxamide] | 140 nM |
| Cc1ccc(CN)cc1C(=O)NC(C)c1cc(-c2cnn(C)c2)cc2ccccc12 (stereo not shown) [Example 3, 5-(aminomethyl)-2-methyl-N-(1-(3-(1-methyl-1H-pyrazol-4-yl)naphthalen-1-yl)ethyl)benzamide] | 48 nM |
| Cc1ccc(NC(=O)[C@H]2CCCCN2)cc1C(=O)NC(C)c1cc(N)nc2ccccc12 (mixture of isomers) [Example 25, (R)—N-(3-(((RS)-1-(2-aminoquinolin-4-yl)ethyl)carbamoyl)-4-methylphenyl)piperidine-2-carboxamide] | 100 nM |
| Cc1ccccc1C(=O)NC(C)c1cc(-c2cnn(CC3(C#N)CC3)c2)nc2ccccc12 (stereo not shown) [Example 123, N-[1-(2-{1-[(1-cyanocyclopropyl)methyl]-1H-pyrazol-4-yl}quinolin-4-yl)ethyl]-2-methylbenzamide] | 329 nM |
| Cc1ccccc1C(=O)N[C@H](C)c1cc(OC2CCOC2)nc2ccccc12 (stereo partly drawn) [Example 46, 2-methyl-N-((1R)-1-(2-((tetrahydrofuran-3-yl)oxy)quinolin-4-yl)ethyl)benzamide] | 3620 nM |

| SMILES | IC50 |
| --- | --- |
| Cc1cc(COCc2cocn2)ccc1C(=O)NC1(c2cc(-c3cnn(C)c3)nc3ccccc23)CC1 [Example 344, 2-methyl-N-(1-(2-(1-methyl-1H-pyrazol-4-yl)quinolin-4-yl)cyclopropyl)-4-((oxazol-4-ylmethoxy)methyl)benzamide] | < 1 nM |
| Cc1ccccc1C(=O)NC(C)c1cc(-c2cc(C(C)C)no2)nc2ccccc12 (stereo not shown) [Example 124, 2-methyl-N-(1-{2-[3-(propan-2-yl)-1,2-oxazol-5-yl]quinolin-4-yl}ethyl)benzamide] | 635 nM |
| Cc1ccc(N2CC3CC2CN3C)cc1C(=O)N[C@H](C)c1cc(-c2cnn(C)c2)nc2ccccc12 (stereo partly drawn) [Example 256, 2-methyl-N-((R)-1-(2-(1-methyl-1H-pyrazol-4-yl)quinolin-4-yl)ethyl)-5-(5-methyl-2,5-diazabicyclo[2.2.1]heptan-2-yl)benzamide] | 15 nM |
| C[C@@H](NC(=O)c1ccccc1CCC(=O)NNC(=O)[C@H]1O[C@@H]1C(=O)O)c1cc(-c2cnn(C)c2)nc2ccccc12 [Example 219, (2S,3S)-3-(2-(3-(2-(((R)-1-(2-(1-methyl-1H-pyrazol-4-yl)quinolin-4-yl)ethyl)carbamoyl)phenyl)propanoyl)hydrazine-1-carbonyl)oxirane-2-carboxylic acid] | 1 nM |
| Cc1ccccc1C(=O)NC(C)c1cc(-c2csc(C#N)c2)nc2ccccc12 (stereo not shown) [Example 103, N-{1-[2-(5-cyanothiophen-3-yl)quinolin-4-yl]ethyl}-2-methylbenzamide] | 616 nM |
| Cc1ccccc1C(=O)NC(C)c1cc(NCC2CCN(S(C)(=O)=O)CC2)nc2ccccc12 (stereo not shown) [Example 150] | 1070 nM |
| Cc1cc(CNCc2cncn2C)ccc1C(=O)N[C@H](C)c1cc(-c2cnn(C)c2)nc2ccccc12 [Example 221, (R)-2-methyl-4-((((1-methyl-1H-imidazol-5-yl)methyl)amino)methyl)-N-(1-(2-(1-methyl-1H-pyrazol-4-yl)quinolin-4-yl)ethyl)benzamide] | 15 nM |
| Cc1ccc(CN)cc1C(=O)N[C@H](C)c1cc(-c2cnn(C)c2)cc2ccccc12 (single isomer, unassigned) [Example 9] | 3920 nM |
| Cc1cc(CN)ccc1C(=O)NC(C)c1cc(-c2cnn(C)c2)cc2ccccc12 (stereo not shown) [Example 5, 4-(aminomethyl)-2-methyl-N-(1-(3-(1-methyl-1H-pyrazol-4-yl)naphthalen-1-yl)ethyl)benzamide] | 87 nM |
| Cc1ccccc1C(=O)N[C@H](C)c1cc(N)nc2ccccc12 [Example 39, (R)-N-(1-(2-aminoquinolin-4-yl)ethyl)-2-methylbenzamide] | 861 nM |
| Cc1ccc(CN)cc1C(=O)N[C@H](C)c1cc(-n2ccnn2)nc2ccccc12 [Example 23, (R)—N-(1-(2-(1H-1,2,3-triazol-1-yl)quinolin-4-yl)ethyl)-5-(aminomethyl)-2-methylbenzamide] | 293 nM |
| Cc1ccccc1C(=O)N[C@H](C)c1cc(OCC2CCOC2)nc2ccccc12 (stereo partly drawn) [Example 43, 2-methyl-N-((1R)-1-(2-((tetrahydrofuran-3-yl)methoxy)quinolin-4-yl)ethyl)benzamide] | 3080 nM |
| Cc1cc(C(C)NC(=O)c2ncc[nH]2)ccc1C(=O)N[C@H](C)c1cc(-c2cnn(C)c2)nc2ccccc12 (stereo partly drawn) [Example 270, N-(1-(3-methyl-4-(((R)-1-(2-(1-methyl-1H-pyrazol-4-yl)quinolin-4-yl)ethyl)carbamoyl)phenyl)ethyl)-1H-imidazole-2-carboxamide] | 37 nM |
| COCC(OCc1cscn1)c1ccc(C(=O)NC2(c3cc(-c4cnn(C)c4)nc4ccccc34)CC2)c(C)c1 (single isomer, unassigned) [Example 325] | 1 nM |
| COC[C@@H](OCc1cocn1)c1ccc(C(=O)NC2(c3cc(-c4cnn(C)c4)cc4nc(C)ccc34)CC2)c(C)c1 (single isomer, unassigned) [Example 365] | < 1 nM |
| Cc1ccc(N2CCC(N)C2=O)cc1C(=O)N[C@H](C)c1cc(-c2cnn(C)c2)nc2ccccc12 (stereo partly shown) [Example 247] | 91 nM |
| Cc1ccccc1C(=O)NC(C)c1cc(-c2ccc(N)nc2)nc2ccccc12 (stereo not shown) [Example 127, N-{1-[2-(6-aminopyridin-3-yl)quinolin-4-yl]ethyl}-2-methylbenzamide] | 1820 nM |
| Cc1cc(CC(=O)Nc2ncc[nH]2)ccc1C(=O)N[C@H](C)c1cc(-c2cnn(C)c2)nc2ccccc12 [Example 239, (R)-4-(2-((1H-imidazol-2-yl)amino)-2-oxoethyl)-2-methyl-N-(1-(2-(1-methyl-1H-pyrazol-4-yl)quinolin-4-yl)ethyl)benzamide] | 7 nM |
